This is an account of results in patent US6482603B1, “Method of detecting drug-receptor and protein-protein interactions” (Yale University, priority 1998, dated 2002).

Assay [1] deals with yeast expressing the Sec-1 G protein gamma subunit fusion and syntaxin. The assay is described as follows: growth inhibition assay (halo assay). The assay is classed as cell-based, Saccharomyces cerevisiae. The following applies: filter disks containing 5 or 15 μg of α-factor; strain MHY6; documented after 2 days at 30° C. Here is the method: (§1) Standard methods for the growth, maintenance, and transformation of yeast and bacteria, and for the manipulation of DNA, were used throughout (Ausubel et al. 1987, Current Protocols in Molecular Biology. Wiley-Interscience, New York). The Escherichia coli strain DH5α was used for the maintenance of plasmids. Yeast cells were grown in synthetic medium supplemented with amino acids, adenine and 2% glucose (SCD) or 2% galactose plus 0.2% sucrose (SCG); tryptophan and/or uracil were omitted to maintain selection for plasmids. The Saccharomyces cerevisiae strain used in this study was MHY6 (from Jeremy Thomer) (MATa ura3-52 lys2-801^am ade2-101^oc trp1-Δ63 his3-Δ200 leu2-Δ1 ste18Δ::LEU2) (derived from Sikorski et al. (1989) Genetics 122(1):19-27).
(§2) To evaluate to the interactions of the Sec-1 G protein gamma subunit fusion and syntaxin, a growth inhibition assay (halo assay) was carried out by diluting 50 μL from an overnight culture grown at 30° C. in selective media with 2 mL sterile water, followed by the addition of an equal volume of 1% (w/v) dissolved agar (55° C.) and poured onto a culture dish of SCD-Trp-Ura or SCG-Trp-Ura medium. Sterile filter discs were spotted with 5 μg or 15 μg of synthetic α-factor pheromone and placed onto the nascent lawn to induce growth arrest. The resulting zone of growth-arrested cells was documented after 2 days at 30° C. […]

The subject of assay [2] is control cells which express the Sec-1 G protein gamma fusion alone and cells which express syntaxin alone. The assay is described as follows: growth inhibition assay (halo assay), control cells. The format is cell-based, Saccharomyces cerevisiae. Particulars: upon pheromone addition, filter disks with 5 or 15 μg, 2 days at 30° C. The method, then:
as §1, §2

Turning to α-factor, the “α-factor induced growth arrest (zone of inhibition around filter paper disks)” value in assay [1] is recorded as “no zone of inhibition”. Further, the “pheromone induced growth arrest” value in assay [2] is reported as “growth arrest”.
